PubChem BioAssay AID1963983 (Molecular Pharmacology Branch, DTP, NCI, 2024)
“And” between values parts separate entries of the source, which are not always exact repeats. Equal values may be shown once. Each block holds one molecule with its values, some of them ahead of it.

Tested on: 186277-243-T-J2-PDC multi-cell spheroid viability
Assay: Anticancer human tumor 186277-243-T-J2-PDC patient-derived colon adenocarcinoma cell line growth inhibition [PI3K]
Conditions: for viability, T/C: stronger effect = lower value
Summary of the method: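 Viability of mixed-cell spheroids was determined after exposure to pairwise combinations, one partner being inavolisib, alpelisib, duvelisib or copanlisib. Highest tested concentration matched clinical Cmax where known and 10 microM where not, descending in half-log steps.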

[1] = curve of first compound, second compound 0.0316 µM
[2] = curve of first compound, second compound 0.1 µM
[3] = curve of first compound, second compound 0.316 µM
[4] = curve of first compound, second compound 1 µM
[5] = second compound 0.0316 µM, first compound 0.0316 µM
[6] = second compound 0.0316 µM, first compound 0.1 µM
[7] = second compound 0.0316 µM, first compound 0.316 µM
[8] = second compound 0.0316 µM, first compound 1 µM
[9] = second compound 0.0316 µM, first compound 3.16 µM
[10] = second compound 0.0316 µM, first compound 10 µM
[11] = second compound 0.1 µM, first compound 0.0316 µM
[12] = second compound 0.1 µM, first compound 0.1 µM
[13] = second compound 0.1 µM, first compound 0.316 µM
[14] = second compound 0.1 µM, first compound 1 µM
[15] = second compound 0.1 µM, first compound 3.16 µM
[16] = second compound 0.1 µM, first compound 10 µM
[17] = second compound 0.316 µM, first compound 0.0316 µM
[18] = second compound 0.316 µM, first compound 0.1 µM
[19] = second compound 0.316 µM, first compound 0.316 µM
[20] = second compound 0.316 µM, first compound 1 µM
[21] = second compound 0.316 µM, first compound 3.16 µM
[22] = second compound 0.316 µM, first compound 10 µM
[23] = second compound 1 µM, first compound 0.0316 µM
[24] = second compound 1 µM, first compound 0.1 µM
[25] = second compound 1 µM, first compound 0.316 µM
[26] = second compound 1 µM, first compound 1 µM
[27] = second compound 1 µM, first compound 3.16 µM
[28] = second compound 1 µM, first compound 10 µM
[29] = curve of first compound, second compound 3.16 µM
[30] = curve of first compound, second compound 10 µM
[31] = second compound 3.16 µM, first compound 0.0316 µM
[32] = second compound 3.16 µM, first compound 0.1 µM
[33] = second compound 10 µM, first compound 0.0316 µM
[34] = second compound 10 µM, first compound 0.1 µM
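Note: spheroids exposed to compounds for seven days before viability reading.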
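Throughout, for viability, T/C: 100% = DMSO vehicle control viability.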

Structure (SMILES): CC(C)n1nc(-c2ccc3oc(N)nc3c2)c2c(N)ncnc21
viability, T/C (compound 0.000316 µM): 98% [middle of 4 runs]
viability, T/C (compound 0.001 µM): 96.1% [middle of 4 runs]
viability, T/C (compound 0.00316 µM): 99.7% [middle of 4 runs]
viability, T/C (compound 0.0316 µM): 78.8% [middle of 4 runs]
viability, T/C (compound 0.1 µM): 29.6% and 31.3% (2×) and 27.9%
IC50 (curve of compound): 63.7 nM [middle of 4 runs]

Structure (SMILES): CC(C)n1nc(-c2ccc3oc(N)nc3c2)c2c(N)ncnc21 + Cc1nc(NC(=O)N2CCCC2C(N)=O)sc1-c1ccnc(C(C)(C)C(F)(F)F)c1
IC50 [1]: 53.1 nM
IC50 [2]: 52.6 nM
IC50 [3]: 38 nM
IC50 [4]: 24.5 nM
IC50 [29]: 2.04 nM
IC50 [30]: < 0.316 nM
viability, T/C (second compound 0.0316 µM, first compound 0.000316 µM): 106%
viability, T/C (second compound 0.0316 µM, first compound 0.001 µM): 90.3%
viability, T/C (second compound 0.0316 µM, first compound 0.00316 µM): 101%
viability, T/C (second compound 0.0316 µM, first compound 0.01 µM): 101%
viability, T/C [5]: 73.5%
viability, T/C [6]: 21.5%
viability, T/C (second compound 0.1 µM, first compound 0.000316 µM): 101%
viability, T/C (second compound 0.1 µM, first compound 0.001 µM): 107%
viability, T/C (second compound 0.1 µM, first compound 0.00316 µM): 99.1%
viability, T/C (second compound 0.1 µM, first compound 0.01 µM): 87.1%
viability, T/C [11]: 72.1%
viability, T/C [12]: 24.1%
viability, T/C (second compound 0.316 µM, first compound 0.000316 µM): 114%
viability, T/C (second compound 0.316 µM, first compound 0.001 µM): 107%
viability, T/C (second compound 0.316 µM, first compound 0.00316 µM): 79.9%
viability, T/C (second compound 0.316 µM, first compound 0.01 µM): 82.4%
viability, T/C [17]: 63.7%
viability, T/C [18]: 14.7%
viability, T/C (second compound 1 µM, first compound 0.000316 µM): 113%
viability, T/C (second compound 1 µM, first compound 0.001 µM): 97.5%
viability, T/C (second compound 1 µM, first compound 0.00316 µM): 87.7%
viability, T/C (second compound 1 µM, first compound 0.01 µM): 76.8%
viability, T/C [23]: 41%
viability, T/C [24]: 6.83%
viability, T/C (second compound 3.16 µM, first compound 0.000316 µM): 62.1%
viability, T/C (second compound 3.16 µM, first compound 0.001 µM): 56.8%
viability, T/C (second compound 3.16 µM, first compound 0.00316 µM): 46.2%
viability, T/C (second compound 3.16 µM, first compound 0.01 µM): 29%
viability, T/C [31]: 14.5%
viability, T/C [32]: 3.88%
viability, T/C (second compound 10 µM, first compound 0.000316 µM): 17.3%
viability, T/C (second compound 10 µM, first compound 0.001 µM): 16.8%
viability, T/C (second compound 10 µM, first compound 0.00316 µM): 10.8%
viability, T/C (second compound 10 µM, first compound 0.01 µM): 13.1%
viability, T/C [33]: 6.47%
viability, T/C [34]: 2.92%

Structure (SMILES): C[C@@H](NC(=O)c1ncnc(N)c1Cl)c1ncc(C(=O)Nc2cc(C(F)(F)F)c(Cl)cn2)s1 + Cc1nc(NC(=O)N2CCCC2C(N)=O)sc1-c1ccnc(C(C)(C)C(F)(F)F)c1
IC50 [1]: > 10000 nM
IC50 [2]: > 10000 nM
IC50 [3]: 8100 nM
IC50 [4]: 4320 nM
IC50 [29]: 382 nM
IC50 [30]: < 31.6 nM
viability, T/C [5]: 87.8%
viability, T/C [6]: 78.3%
viability, T/C [7]: 101%
viability, T/C [8]: 99.5%
viability, T/C [9]: 102%
viability, T/C [10]: 78.4%
viability, T/C [11]: 92.9%
viability, T/C [12]: 90.8%
viability, T/C [13]: 93.9%
viability, T/C [14]: 108%
viability, T/C [15]: 99.2%
viability, T/C [16]: 72%
viability, T/C [17]: 104%
viability, T/C [18]: 107%
viability, T/C [19]: 105%
viability, T/C [20]: 88.1%
viability, T/C [21]: 85.8%
viability, T/C [22]: 42.1%
viability, T/C [23]: 103%
viability, T/C [24]: 88.5%
viability, T/C [25]: 102%
viability, T/C [26]: 91.2%
viability, T/C [27]: 62.8%
viability, T/C [28]: 15.7%
viability, T/C [31]: 77.8%
viability, T/C [32]: 65.8%
viability, T/C (second compound 3.16 µM, first compound 0.316 µM): 54.9%
viability, T/C (second compound 3.16 µM, first compound 1 µM): 33.3%
viability, T/C (second compound 3.16 µM, first compound 3.16 µM): 12.9%
viability, T/C (second compound 3.16 µM, first compound 10 µM): 6%
viability, T/C [33]: 18.7%
viability, T/C [34]: 18.9%
viability, T/C (second compound 10 µM, first compound 0.316 µM): 14.2%
viability, T/C (second compound 10 µM, first compound 1 µM): 4.89%
viability, T/C (second compound 10 µM, first compound 3.16 µM): 5.43%
viability, T/C (second compound 10 µM, first compound 10 µM): 0.25%

More lines, main results first:

IC50 (curve of first compound, second compound 0.00316 µM): > 10000 nM
IC50 (curve of first compound, second compound 0.01 µM): > 10000 nM
IC50 [1]: > 10000 nM
IC50 [2]: > 10000 nM
IC50 [3]: 4990 nM
IC50 [4]: < 31.6 nM
Structure (SMILES): C=CC(=O)N1CCN(c2nc(=O)n(-c3c(C)ccnc3C(C)C)c3nc(-c4c(O)cccc4F)c(F)cc23)C(C)C1 (centres undefined) + CC(Nc1ccc2c(c1)OCCn1cc(N3C(=O)OCC3C(F)F)nc1-2)C(N)=O
viability, T/C (second compound 0.00316 µM, first compound 0.0316 µM): 109%
viability, T/C (second compound 0.00316 µM, first compound 0.1 µM): 88.5%
viability, T/C (second compound 0.00316 µM, first compound 0.316 µM): 94.7%
viability, T/C (second compound 0.00316 µM, first compound 1 µM): 94.9%
viability, T/C (second compound 0.00316 µM, first compound 3.16 µM): 109%
viability, T/C (second compound 0.00316 µM, first compound 10 µM): 93.9%
viability, T/C (second compound 0.01 µM, first compound 0.0316 µM): 103%
viability, T/C (second compound 0.01 µM, first compound 0.1 µM): 99.4%
viability, T/C (second compound 0.01 µM, first compound 0.316 µM): 107%
viability, T/C (second compound 0.01 µM, first compound 1 µM): 101%
viability, T/C (second compound 0.01 µM, first compound 3.16 µM): 103%
viability, T/C (second compound 0.01 µM, first compound 10 µM): 102%
viability, T/C [5]: 104%
viability, T/C [6]: 102%
viability, T/C [7]: 105%
viability, T/C [8]: 112%
viability, T/C [9]: 115%
viability, T/C [10]: 87.2%
viability, T/C [11]: 103%
viability, T/C [12]: 107%
viability, T/C [13]: 88.3%
viability, T/C [14]: 94.4%
viability, T/C [15]: 86.6%
viability, T/C [16]: 74.4%
viability, T/C [17]: 82.2%
viability, T/C [18]: 74.8%
viability, T/C [19]: 67.7%
viability, T/C [20]: 74.7%
viability, T/C [21]: 56.9%
viability, T/C [22]: 37.4%
viability, T/C [23]: 48.2%
viability, T/C [24]: 50.1%
viability, T/C [25]: 50.9%
viability, T/C [26]: 48.1%
viability, T/C [27]: 32.8%
viability, T/C [28]: 22.9%

IC50 (curve of compound): 80.8 nM [middle of 4 runs]
Structure (SMILES): C#Cc1c(F)ccc2cc(O)cc(-c3ncc4c(N5CC6CCC(C5)N6)nc(OCC56CCCN5CC(F)C6)nc4c3F)c12 (centres undefined)
viability, T/C (compound 0.0316 µM): 90.4% [middle of 4 runs]
viability, T/C (compound 0.1 µM): 40.8% [middle of 4 runs]
viability, T/C (compound 0.316 µM): 25.4% [middle of 4 runs]
viability, T/C (compound 1 µM): 15.6% [middle of 4 runs]
viability, T/C (compound 3.16 µM): 14.8% [middle of 4 runs]
viability, T/C (compound 10 µM): 11.7% [middle of 4 runs]
